Source: patent US20260325533A1, “CDK INHIBITOR COMPOUNDS” (ALEKSIA THERAPEUTICS, INC., priority 2023, published 2026)
Where two headings read alike, the source gives them in different places. Each block holds one compound with its values, some of them ahead of it.

Legend:
Type in all cases: biochemical
CDK2/CCNE1 = CDK2/CCNE1 (Homo sapiens, UniProt P24941); assay: CDK2 homogeneous time-resolved fluorescence (HTRF) kinase assay; conditions: CDK2/CCNE
How it was run: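 IC50 derived from 11-point, half-log dilutions (usually top 10 μM) of compound, 1% DMSO. Kinase (3 nM CDK2/CCNE1) was preincubated with compound 20 min, then phosphorylated 50 nM ULight-4E-BP1 peptide at 1 mM ATP for 60 min, 23 °C. Europium-antibody TR-FRET read after EDTA stop.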

CDK1/CCNB1 = CDK1/CCNB1 (Homo sapiens, UniProt P06493); assay: CDK1 homogeneous time-resolved fluorescence (HTRF) kinase assay; conditions: CDK1/CCNB
How it was run: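 Read-out: TR-FRET (Eu anti-phospho-4E-BP1 Thr37/46 antibody, 2 nM; 665 nm or 665/615 ratio) after 60 min phosphorylation of 50 nM ULight-peptide by 0.5 nM CDK1/CCNB1 at 1 mM ATP, 23 °C. Compound preincubated 20 min with enzyme; 1% DMSO.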

CDK4/CCND3 = CDK4/CCND3 (Homo sapiens, UniProt P11802); assay: CDK4 homogeneous time-resolved fluorescence (HTRF) kinase assay; conditions: CDK4/CCND
How it was run: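 IC50 values were derived from 11-point half-log dilutions, usually starting at 10 μM. Compound was first held for 20 min at 23 °C with 1.5 nM CDK4/CCND3. 1 mM ATP and 50 nM ULight-eIF4E-BP1 (Thr37/46) substrate were then added for 60 min, and the TR-FRET 665 nm signal was measured after EDTA stop and Eu-anti-phospho-4E-BP1 detection.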

CDK6/CCND1 = CDK6/CCND1 (Homo sapiens, UniProt Q00534); assay: CDK6 homogeneous time-resolved fluorescence (HTRF) kinase assay; conditions: CDK6/CCND
How it was run: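 Recombinant CDK6/CCND1 (1 nM final) was preincubated with compound for 20 min at 23 °C in HEPES buffer with MgCl2, EGTA, DTT and Tween 20. Kinase reaction then ran 60 min at 23 °C with 1 mM ATP and 50 nM ULight-4E-BP1 (Thr37/46) peptide, and was stopped with EDTA.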

[1] = <25 nM, read-out: CDK2/CCNE IC50 <25 nM
[2] = x = IC50 <25 nM, read-out: CDK2/CCNE IC50 (<25 nM)
[3] = x = IC50 >250 nM, read-out: CDK6/CCND IC50 (>250 nM column)
[4] = x = IC50 >250 nM, read-out: CDK1/CCNB IC50 (>250 nM column)
[5] = x = IC50 >250 nM, read-out: CDK4/CCND IC50 (>250 nM column)
[6] = >250 nM, read-out: CDK1/CCNB IC50 >250 nM
[7] = >250 nM, read-out: CDK4/CCND IC50, >250 nM
[8] = >250 nM, 1 mM ATP, read-out: CDK6/CCND IC50, >250 nM
[9] = x = IC50 25-250 nM, read-out: CDK2/CCNE IC50 (25-250 nM)

Sequence of CDK4/CCND3 (P11802 whole entry): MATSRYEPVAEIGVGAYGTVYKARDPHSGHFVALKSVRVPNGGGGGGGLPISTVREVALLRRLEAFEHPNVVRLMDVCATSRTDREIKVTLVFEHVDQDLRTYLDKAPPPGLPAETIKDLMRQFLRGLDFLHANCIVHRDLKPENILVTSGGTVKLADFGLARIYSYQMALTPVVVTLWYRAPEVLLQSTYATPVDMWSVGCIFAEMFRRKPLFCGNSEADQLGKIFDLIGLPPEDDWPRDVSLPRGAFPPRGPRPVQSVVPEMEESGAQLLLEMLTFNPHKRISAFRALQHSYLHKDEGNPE
Sequence of CDK4/CCND3 (P30281 whole entry partner): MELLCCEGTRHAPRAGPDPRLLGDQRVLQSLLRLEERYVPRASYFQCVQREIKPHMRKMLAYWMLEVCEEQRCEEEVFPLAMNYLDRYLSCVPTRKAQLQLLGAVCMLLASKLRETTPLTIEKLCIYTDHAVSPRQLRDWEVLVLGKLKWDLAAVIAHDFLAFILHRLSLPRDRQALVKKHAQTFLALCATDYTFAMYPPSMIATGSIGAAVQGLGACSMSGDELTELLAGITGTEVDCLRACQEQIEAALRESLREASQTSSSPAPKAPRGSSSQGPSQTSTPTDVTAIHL
Sequence of CDK6/CCND1 (Q00534 whole entry): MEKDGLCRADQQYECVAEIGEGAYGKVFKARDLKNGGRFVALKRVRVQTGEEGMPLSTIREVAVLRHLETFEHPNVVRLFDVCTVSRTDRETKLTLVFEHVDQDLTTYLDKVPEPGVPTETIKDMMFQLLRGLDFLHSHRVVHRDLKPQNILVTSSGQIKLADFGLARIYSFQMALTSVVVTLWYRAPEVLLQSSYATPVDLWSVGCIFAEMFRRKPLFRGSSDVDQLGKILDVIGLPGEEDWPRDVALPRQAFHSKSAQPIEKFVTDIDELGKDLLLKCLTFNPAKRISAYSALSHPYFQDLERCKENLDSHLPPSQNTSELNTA
Sequence of CDK6/CCND1 (P24385 whole entry partner): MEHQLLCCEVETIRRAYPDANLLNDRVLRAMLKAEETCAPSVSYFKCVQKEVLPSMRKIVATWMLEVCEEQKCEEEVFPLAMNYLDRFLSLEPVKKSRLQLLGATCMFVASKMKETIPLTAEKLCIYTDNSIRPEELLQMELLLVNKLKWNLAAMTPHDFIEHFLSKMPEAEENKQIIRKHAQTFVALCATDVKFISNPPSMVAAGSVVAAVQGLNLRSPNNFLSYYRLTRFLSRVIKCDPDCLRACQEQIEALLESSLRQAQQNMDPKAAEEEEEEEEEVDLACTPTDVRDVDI
Sequence of CDK1/CCNB1 (P06493 whole entry): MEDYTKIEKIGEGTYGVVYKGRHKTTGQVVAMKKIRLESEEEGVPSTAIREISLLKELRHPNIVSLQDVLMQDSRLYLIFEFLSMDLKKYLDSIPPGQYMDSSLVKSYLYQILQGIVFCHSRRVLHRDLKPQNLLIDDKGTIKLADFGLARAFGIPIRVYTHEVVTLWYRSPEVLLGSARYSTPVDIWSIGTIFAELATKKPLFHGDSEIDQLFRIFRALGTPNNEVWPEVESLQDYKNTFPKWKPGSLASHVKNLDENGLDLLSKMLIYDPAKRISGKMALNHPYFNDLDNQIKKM
Sequence of CDK1/CCNB1 (P14635 whole entry partner): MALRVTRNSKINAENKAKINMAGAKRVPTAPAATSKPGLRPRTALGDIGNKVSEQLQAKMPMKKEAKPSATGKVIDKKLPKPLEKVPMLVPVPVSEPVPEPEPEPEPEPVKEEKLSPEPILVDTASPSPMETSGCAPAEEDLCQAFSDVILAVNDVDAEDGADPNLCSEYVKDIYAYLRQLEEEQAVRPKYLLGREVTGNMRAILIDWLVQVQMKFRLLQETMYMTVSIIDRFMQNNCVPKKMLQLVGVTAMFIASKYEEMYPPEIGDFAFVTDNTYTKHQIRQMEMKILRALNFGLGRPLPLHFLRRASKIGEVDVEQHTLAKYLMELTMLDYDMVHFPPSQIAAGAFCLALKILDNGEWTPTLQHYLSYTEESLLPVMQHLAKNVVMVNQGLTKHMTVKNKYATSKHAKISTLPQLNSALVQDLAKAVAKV

IC50 (CDK2/CCNE1; [2]): < 25 nM | IC50 (CDK1/CCNB1; [4]): > 250 nM | IC50 (CDK4/CCND3; [5]): > 250 nM | IC50 (CDK6/CCND1; [3]): > 250 nM
Structure (SMILES): Cc1c(-c2nccc3cnc(Nc4ccc(S(C)(=N)=O)cc4)cc23)ccc2nn(C)cc12 (racemic) [Example 626, (4-((5-(2,4-dimethyl-2H-indazol-5-yl)-2,6-naphthyridin-3-yl)amino)phenyl)(imino)(methyl)-λ^6-sulfanone]

IC50 (CDK2/CCNE1; <25 nM, read-out: CDK2/CCNE IC50, <25 nM): < 25 nM | IC50 (CDK1/CCNB1; [6]): > 250 nM | IC50 (CDK4/CCND3; [7]): > 250 nM | IC50 (CDK6/CCND1; [8]): > 250 nM
Structure (SMILES): Cc1c(-c2nccc3cnc(Nc4ccc(NS(=O)(=O)c5cccc(N6CCNCC6)c5)cc4)cc23)ccc2c1cnn2CC(C)(C)O [Example 752, N-(4-((5-(1-(2-hydroxy-2-methylpropyl)-4-methyl-1H-indazol-5-yl)-2,6-naphthyridin-3-yl)amino)phenyl)-3-(piperazin-1-yl)benzenesulfonamide]

IC50 (CDK2/CCNE1; [9]): 25 to 250 nM | IC50 (CDK1/CCNB1; [4]): > 250 nM | IC50 (CDK4/CCND3; [5]): > 250 nM | IC50 (CDK6/CCND1; [3]): > 250 nM
Structure (SMILES): C/C=C/S(=O)(=O)c1ccc(Nc2cc3c(N4CCC(C#N)CC4)nccc3cn2)cc1 [Example 670, (E)-1-(7-((4-(prop-1-en-1-ylsulfonyl)phenyl)amino)-2,6-naphthyridin-1-yl)piperidine-4-carbonitrile]

The next lines start with the compound.

Structure (SMILES): CS(=O)(=O)N1CCC(Nc2cc3c(C4CCCCC4)nccc3cn2)CC1 [Example 21, 5-cyclohexyl-N-(1-(methylsulfonyl)piperidin-4-yl)-2,6-naphthyridin-3-amine]
IC50 (CDK2/CCNE1; [1]): < 25 nM | IC50 (CDK1/CCNB1; 25-250 nM marked x, read-out: CDK1/CCNB IC50 25-250 nM): 25 to 250 nM | IC50 (CDK4/CCND3; <25 nM, read-out: CDK4/CCND IC50 <25 nM): < 25 nM | IC50 (CDK6/CCND1; <25 nM, read-out: CDK6/CCND IC50 <25 nM): < 25 nM

Structure (SMILES): CC1(C)C(=O)Nc2cc(C#Cc3nccc4cnc(Nc5ccc(S(=O)(=O)NC6CCOCC6)cc5)cc34)ccc21 [Ex 443, 4-((5-((3,3-dimethyl-2-oxoindolin-6-yl)ethynyl)-2,6-naphthyridin-3-yl)amino)-N-(tetrahydro-2H-pyran-4-yl)benzenesulfonamide]
IC50 (CDK2/CCNE1; [2]): < 25 nM | IC50 (CDK1/CCNB1; x = IC50 25-250 nM, read-out: CDK1/CCNB IC50 (25-250 nM)): 25 to 250 nM | IC50 (CDK4/CCND3; x = IC50 25-250 nM, read-out: CDK4/CCND IC50 (25-250 nM)): 25 to 250 nM | IC50 (CDK6/CCND1; [3]): > 250 nM

Structure (SMILES): CCC1(CC)C(=O)Nc2cc(C#Cc3nccc4cnc(Nc5ccc(S(=O)(=O)CC)cc5C)cc34)ccc21 [Ex 370, 3,3-diethyl-6-((7-((4-(ethylsulfonyl)-2-methylphenyl)amino)-2,6-naphthyridin-1-yl)ethynyl)indolin-2-one]
IC50 (CDK2/CCNE1; [2]): < 25 nM | IC50 (CDK1/CCNB1; [4]): > 250 nM | IC50 (CDK4/CCND3; [5]): > 250 nM | IC50 (CDK6/CCND1; [3]): > 250 nM

Structure (SMILES): CS(=O)(=O)c1ccc(Nc2cc3c(C#Cc4cc(F)cc(C#N)c4)nccc3cn2)cc1 [Ex 571, 3-fluoro-5-((7-((4-(methylsulfonyl)phenyl)amino)-2,6-naphthyridin-1-yl)ethynyl)benzonitrile]
IC50 (CDK2/CCNE1; [9]): 25 to 250 nM | IC50 (CDK1/CCNB1; [4]): > 250 nM | IC50 (CDK4/CCND3; [5]): > 250 nM | IC50 (CDK6/CCND1; [3]): > 250 nM

Structure (SMILES): COc1ccc(C#Cc2nccc3cnc(Nc4ccc(S(C)(=O)=O)cc4)cc23)cc1 [Ex 941, 5-((4-methoxyphenyl)ethynyl)-N-(4-(methylsulfonyl)phenyl)-2,6-naphthyridin-3-amine]
IC50 (CDK2/CCNE1; 25-250 nM, read-out: CDK2/CCNE IC50, 25-250 nM): 25 to 250 nM | IC50 (CDK1/CCNB1; [6]): > 250 nM | IC50 (CDK4/CCND3; [7]): > 250 nM | IC50 (CDK6/CCND1; [8]): > 250 nM

Structure (SMILES): CS(=O)(=O)N1CCC(Nc2cc3c(-c4ccc(C#N)cc4)nccc3cn2)CC1 [Ex 74, 4-(7-((1-(methylsulfonyl)piperidin-4-yl)amino)-2,6-naphthyridin-1-yl)benzonitrile]
IC50 (CDK2/CCNE1; [1]): < 25 nM | IC50 (CDK1/CCNB1; >250 nM marked x, read-out: CDK1/CCNB IC50 >250 nM): > 250 nM | IC50 (CDK4/CCND3; 25-250 nM marked x, read-out: CDK4/CCND IC50 25-250 nM): 25 to 250 nM | IC50 (CDK6/CCND1; 25-250 nM marked x, read-out: CDK6/CCND IC50 25-250 nM): 25 to 250 nM
